This is an account of results in PMC546329, “SIRT1 Regulates HIV Transcription via Tat Deacetylation” (PLoS Biology, 2005).

This test concerns the target T1, SIRT1 (Homo sapiens, UniProt Q96EB6).
T1 construct: FLAG-tagged SIRT1 immunoprecipitated from HEK 293 cells
T1 sequence (Q96EB6 2-747): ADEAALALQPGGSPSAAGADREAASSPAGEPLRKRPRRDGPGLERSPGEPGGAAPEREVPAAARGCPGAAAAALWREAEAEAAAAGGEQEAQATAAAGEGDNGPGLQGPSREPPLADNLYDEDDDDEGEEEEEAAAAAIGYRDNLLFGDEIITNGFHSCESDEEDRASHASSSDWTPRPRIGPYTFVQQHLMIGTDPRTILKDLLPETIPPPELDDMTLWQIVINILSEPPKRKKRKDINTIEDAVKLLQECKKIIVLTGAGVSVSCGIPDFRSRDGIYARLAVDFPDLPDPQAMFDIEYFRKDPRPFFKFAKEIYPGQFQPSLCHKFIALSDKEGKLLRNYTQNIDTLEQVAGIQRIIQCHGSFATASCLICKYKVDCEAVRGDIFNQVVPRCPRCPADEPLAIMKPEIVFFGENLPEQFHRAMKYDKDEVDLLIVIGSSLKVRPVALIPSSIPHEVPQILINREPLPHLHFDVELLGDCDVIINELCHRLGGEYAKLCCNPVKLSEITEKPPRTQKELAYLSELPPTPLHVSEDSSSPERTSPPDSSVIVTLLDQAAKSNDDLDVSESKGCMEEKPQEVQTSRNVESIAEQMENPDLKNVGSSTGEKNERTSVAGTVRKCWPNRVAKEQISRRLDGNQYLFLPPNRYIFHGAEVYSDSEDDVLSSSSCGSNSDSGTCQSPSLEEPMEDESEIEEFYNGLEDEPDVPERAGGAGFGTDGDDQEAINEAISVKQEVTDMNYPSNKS
Briefly: deacetylation of synthetic acetylated Tat by immunoprecipitated SIRT1 with or without […] NAD+, Western blot. The format is biochemical. Background: In western blotting, separated proteins are transferred to a membrane and probed.

Regarding `NC(=O)c1ccc[n+]([C@@H]2O[C@H](COP(=O)([O-])OP(=O)(O)OC[C@H]3O[C@@H](n4cnc5c(N)ncnc54)[C@H](O)[C@@H]3O)[C@@H](O)[C@H]2O)c1` [NAD^+], the “deacetylation of synthetic acetylated Tat by immunoprecipitated SIRT1 with or wi” value is “The SIRT1-mediated deacetylation of Tat was dependent on NAD^+”.
